Data on 11 compounds can be found in patent US3966728A, “Benzoguanamine derivatives” (Nippon Shinyaku Co., Ltd., priority 1974, dated 1976).

A value given as a limit tells only on which side of the number the result lay.

One series in a line: Acute toxicity (mouse). The settings on record: in vivo, ip. The source says: (§1) Data of the anti-ulcerative activity (Shay rat) and the acute toxicity (mouse) obtained with respect to several typical instances of compounds included in the scope of this invention are shown in Table 1.
A further series has as its system Ulcer (Shay rat). Briefly: Anti-ulcerative activity (Shay rat). It counts as in vivo. The settings on record: ip, read-out: % Inhibition of Ulcer Index; for inhibition in vivo at 10 mg/kg: 10 mg/Kg i.p.; for inhibition in vivo at 20 mg/kg: 20 mg/Kg i.p.
Description: as §1

Usually LD50 stands for the dose at which mortality reaches 50%. A low value points to greater toxicity.

For the compound `Nc1nc(N)nc(-c2cc(Br)ccc2Cl)n1` [Example 6], the LD50 in “Acute toxicity (mouse)” was greater than 1000 mg/kg. Further, in the series on Ulcer (Shay rat), the inhibition in vivo at 10 mg/kg turned out to be 35% and the inhibition in vivo at 20 mg/kg is 86%.

In the case of `Nc1nc(N)nc(-c2ccc(Cl)cc2Br)n1` [Example 8], in the series on Ulcer (Shay rat), the inhibition in vivo at 10 mg/kg was found to be 76% and the inhibition in vivo at 20 mg/kg turned out to be 96%.

With `Nc1nc(N)nc(-c2cc(Cl)ccc2F)n1` [Example 2], the inhibition in vivo at 20 mg/kg in the series on Ulcer (Shay rat) worked out at 89%.

With `Nc1nc(N)nc(-c2cc(Cl)ccc2Br)n1` [Example 3], in the series “Acute toxicity (mouse)”, the LD50 was roughly 1000 mg/kg. Besides, in the series on Ulcer (Shay rat), the inhibition in vivo at 10 mg/kg came out at 33% and the inhibition in vivo at 20 mg/kg amounted to 80%.

As to `Nc1nc(N)nc(-c2cc(F)ccc2Br)n1` [Example 4], the LD50 in “Acute toxicity (mouse)” was roughly 500 mg/kg. Also, the inhibition in vivo at 20 mg/kg with Ulcer (Shay rat) is 78%.

Take `Nc1nc(N)nc(-c2cc(Br)ccc2Br)n1` [Example 5]: the LD50 in the series “Acute toxicity (mouse)” is roughly 850 mg/kg. Also, the inhibition in vivo at 20 mg/kg with Ulcer (Shay rat) was 100%.

In the case of `Nc1nc(N)nc(-c2cc(Cl)cc(Cl)c2)n1` [Example 12], the inhibition in vivo at 20 mg/kg in the series on Ulcer (Shay rat) worked out at 80%.

For `Nc1nc(N)nc(-c2c(Cl)cccc2Cl)n1` [Example 11], in the series on Ulcer (Shay rat), the inhibition in vivo at 20 mg/kg came out at 54%.

For `Nc1nc(N)nc(-c2ccc(Cl)cc2Cl)n1` [Example 7], the LD50 in “Acute toxicity (mouse)” is roughly 300 mg/kg. In addition, in the series on Ulcer (Shay rat), the inhibition in vivo at 10 mg/kg came out at 77% and the inhibition in vivo at 20 mg/kg is 100%.

With `Nc1nc(N)nc(-c2cccc(Cl)c2Cl)n1` [Example 10], in the series on Ulcer (Shay rat), the inhibition in vivo at 20 mg/kg is 76%.

The compound `Nc1nc(N)nc(-c2cc(Cl)ccc2Cl)n1` [Example 1] came in with an LD50 in the series “Acute toxicity (mouse)” of roughly 1600 mg/kg. Moreover, in the series with Ulcer (Shay rat), the inhibition in vivo at 10 mg/kg was 49% and the inhibition in vivo at 20 mg/kg is 100%.
